The target of assay [1] is T1, Bruton tyrosine kinase (BTK) (Homo sapiens, UniProt Q06187). The assay is described as follows: Z'LYTE biochemical kinase inhibition assay, dose response.
Assay [2] deals with T1, Bruton tyrosine kinase (BTK). Kind of assay: Z'LYTE biochemical kinase inhibition assay, single dose (% inhibition at […]).

T1 sequence (Q06187 2-659): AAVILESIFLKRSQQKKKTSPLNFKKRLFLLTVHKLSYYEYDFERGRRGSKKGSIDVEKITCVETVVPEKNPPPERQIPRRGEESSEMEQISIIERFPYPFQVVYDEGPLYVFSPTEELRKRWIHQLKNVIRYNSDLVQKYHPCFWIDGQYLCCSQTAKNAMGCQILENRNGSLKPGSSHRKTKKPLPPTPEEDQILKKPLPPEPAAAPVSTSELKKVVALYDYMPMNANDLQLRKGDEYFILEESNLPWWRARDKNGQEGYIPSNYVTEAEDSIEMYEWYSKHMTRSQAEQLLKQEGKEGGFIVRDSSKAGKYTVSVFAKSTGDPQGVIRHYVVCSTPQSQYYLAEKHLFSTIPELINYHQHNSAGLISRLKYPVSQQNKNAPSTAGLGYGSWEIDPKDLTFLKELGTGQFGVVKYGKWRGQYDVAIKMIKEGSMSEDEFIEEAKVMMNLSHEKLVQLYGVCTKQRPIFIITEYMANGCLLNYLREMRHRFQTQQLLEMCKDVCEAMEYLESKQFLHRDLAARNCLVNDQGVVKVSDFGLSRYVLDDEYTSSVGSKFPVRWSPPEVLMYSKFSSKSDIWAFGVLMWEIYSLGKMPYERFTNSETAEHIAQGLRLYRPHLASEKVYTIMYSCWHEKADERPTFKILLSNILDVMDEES

For the compound `O=C(Sc1nc(SC(=O)c2ccccc2)c2cn[nH]c2n1)c1ccccc1` [NSC722944], in assay [1], inhibition was half-maximal at 1.6 µM (IC50). This counts as single-digit micromolar.

On to `N#CCc1n[nH]c2nc(SCc3ccccc3)nc(Nc3nnc(S)s3)c12` [NSC724520], for which the 50% inhibitory concentration (IC50) (commonly the concentration at which inhibition is half-maximal) in assay [1] was 2.1 µM.

Regarding `C(=Nc1nc(N2CCOCC2)nc2[nH]ncc12)c1ccco1` [NSC725686], in assay [1], 0.84 µM corresponded to half-maximal inhibition (IC50).

In the case of `COc1ccc(/C=N/Nc2nc(SCc3ccccc3)nc3[nH]ncc23)cc1OC` [NSC726558], the inhibition (commonly the share of the control response that was lost under treatment) at 10 µM in assay [2] came out at 59%.

For the compound `C(=Nc1nc(NCc2ccccc2)nc2[nH]ncc12)c1cccs1` [NSC726593], half-maximal inhibition in assay [1] (IC50) was put at 5 µM.

(Values after publication PMC8667945, “Structure-based virtual screening and biological evaluation of novel small-molecule BTK inhibitors” (Journal of Enzyme Inhibition and Medicinal Chemistry, 2021).)
